Laboratory results from publication PMC10961089, “Epidermal growth factor receptor inhibition potentiates chemotherapeutics‐mediated sensitization of metastatic breast cancer stem cells” (Cancer Reports, 2024).

How the values were obtained:
HEK‐293 = assay: MTT cytotoxicity assay in control cell line HEK-293; format: cell-based, human; details: compound alone, non-tumoral control cell line, read-out: IC50 (μM) in HEK‐293 (mean ± SD)
Procedure: (§1) TNBC cell lines (ER^−, PR^−, HER2^−)—MDA‐MB‐231 (ATCC HTB‐26) and MDA‐MB‐468 (ATCC HTB‐132) were procured from ATCC and cultured in Roswell Park Memorial Institute Media (RPMI‐1640) and Dulbecco's Modified Eagle's Medium (DMEM), respectively, supplemented with 10% FBS and 1% Penicillin–Streptomycin solution. Cells were maintained at 5% CO2 at 37°C in a humid atmosphere.[6], [26] The control cell line, Human Embryonic Kidney—HEK‐293 (ATCC CRL‐3216) was also obtained from ATCC and cultured in DMEM.[5], [25]
(§2) To evaluate the cytotoxicity profile of the potential EGFR inhibitors (compounds) against TNBC cell lines—MDA‐MB‐231, MDA‐MB‐468, and control cell line HEK293, cells were seeded at a cell density of 5 × 10^3 cells/well in complete medium onto 96‐well plates. Here, the non‐tumoral human embryonic kidney (HEK293) epithelial cells have been utilized as a control cell line to compare the IC50 values of the compounds between cancerous and non‐cancerous cell lines with a big therapeutic window. The use of HEK293 cells as compared to other non‐cancerous cell lines are easy to maintain in culture and the results obtained from HEK293 are highly reproducible and consistent.[27] Briefly, the cells were incubated at 37°C for 12 h to attain morphology. After 12 h, cells were serum starved by replacing the complete media with media containing 2% FBS to synchronize the cells. Post‐12 h of synchronization, cells were treated with an increasing concentration (0.1, 1, 10, 100 μM) of all the compounds (1a, 1b, 1c, 1d, 1e, 1f, 1g, 1h, 1i, 1j, 1k). Separately, TNBC cells were treated with increasing concentration (0.01, 0.1, 1 μM) of Doxorubicin (Sigma‐Aldrich, St Louis, MO, USA) in presence of the selected compounds (1c, 1e, 1g, 1h, 1j, and 1k) at 5 μM concentration or combination of selected compounds (1c, 1e, 1g, 1h, 1j, and 1k) at increasing concentration (1, 2.5, 5, 10 μM) in presence of Doxorubicin (0.01 μM) for 48 h. In addition, the CD24^+‐breast cancer cells and CD24^−/CD44^+‐breast CSC populations, being sorted by Magnetic Activated Cell Sorting (MACS) from MDA‐MB‐231 cells as described previously,[6] were also treated with increasing concentrations of Doxorubicin (0.01–1 μM), in the presence or absence of 1e (10–30 μM), or PD153035 (10 μM) (Sigma‐Aldrich, St Louis, MO, USA). MTT assay was performed to evaluate the cytotoxicity of these compounds against the TNBC cell lines, and the sorted populations as described previously.[6] All the experiments were performed thrice and the IC50 values of the compounds and Doxorubicin were calculated using GraphPad Prism software version 9 (San Diego, CA, USA). Similarly, the percent inhibition of the sorted cell populations by chemotherapeutic drug, doxorubicin in the absence/presence of potent compound 1e or standard EGFR inhibitor, PD153035 was evaluated utilizing GraphPad Prism Version 9 (San Diego, CA, USA).

MDA‐MB‐231 = assay: MTT cytotoxicity assay in MDA-MB-231; format: cell-based, human; details: compound alone, MTT, 48 h; read-out: IC50 (μM) in MDA‐MB‐231 (mean ± SD)
Procedure: as §1, §2

[1] = system: CD24^−/CD44^+‐breast CSCs xenotransplanted tumors; assay: Preclinical orthotopic xenograft murine tumor model (tumor size, weight, H&E histology); format: in vivo, C57BL/6 mice
Procedure: Animal studies have been carried out with the prior approval of the Institutional Animal Ethics Committee (IICT/IAEC/025/2023). C57BL/6 female mice of age 6–8 weeks (N = 35) were initially immunosuppressed with cyclophosphamide (50 mg/kg of body weight, i.p) on alternate days for 2 weeks. For generating a preclinical orthotopic xenograft tumor model, 2 × 10^6 GFP expressing sorted stable CD24^+‐breast cancer cells and CD24^−/CD44^+‐breast CSCs were orthotopically xeno‐transplanted subcutaneously at the fourth mammary fat pad of immune‐suppressed mice (n = 5/group). Subsequently, intratumoral administration of Doxorubicin at a low dose (2.5 mg/kg of body weight), high dose (10 mg/kg of body weight), and/or combinatorial treatment of the potent EGFR inhibitor, compound 1e (50 mg/kg of body weight) or the commercial EGFR inhibitor, PD153035 (50 mg/kg of body weight) with a low dose of doxorubicin was performed to the palpable tumors of breast CSCs at day‐3 post‐transplantation.
Euthanization of mice was performed on day 14 post‐transplantation and tumor tissues were collected for histological and immunohistochemical analysis. Histological differences in tumor tissues were evaluated using hematoxylin and eosin staining (H&E).[28], [30]

[2] = system: CD24^+‐breast cancer cells sorted from MDA‐MB‐231; assay: MTT assay in sorted breast cancer cells; format: cell-based, human; details: doxorubicin 0.01 μM + 1e 5 μM vs doxorubicin 0.01 μM alone
Procedure: To evaluate the cytotoxicity profile of the potential EGFR inhibitors (compounds) against TNBC cell lines—MDA‐MB‐231, MDA‐MB‐468, and control cell line HEK293, cells were seeded at a cell density of 5 × 10^3 cells/well in complete medium onto 96‐well plates. Here, the non‐tumoral human embryonic kidney (HEK293) epithelial cells have been utilized as a control cell line to compare the IC50 values of the compounds between cancerous and non‐cancerous cell lines with a big therapeutic window. The use of HEK293 cells as compared to other non‐cancerous cell lines are easy to maintain in culture and the results obtained from HEK293 are highly reproducible and consistent.[27] Briefly, the cells were incubated at 37°C for 12 h to attain morphology. After 12 h, cells were serum starved by replacing the complete media with media containing 2% FBS to synchronize the cells. […] All the experiments were performed thrice and the IC50 values of the compounds and Doxorubicin were calculated using GraphPad Prism software version 9 (San Diego, CA, USA). Similarly, the percent inhibition of the sorted cell populations by chemotherapeutic drug, doxorubicin in the absence/presence of potent compound 1e or standard EGFR inhibitor, PD153035 was evaluated utilizing GraphPad Prism Version 9 (San Diego, CA, USA).

c1cncc(C(c2c[nH]c3ccccc23)c2c[nH]c3ccccc23)c1 [1e]
IC50 (HEK‐293): 278 ± 13.5 µM
IC50 (MDA‐MB‐231): 18.6 ± 1.84 µM
tumorigenicity (H&E histology) ([1]; 50 mg/kg + low dose doxorubicin 2.5 mg/kg, CSC xenograft): significant decrease
histopathological finding in tumor tissue ([1]; 50 mg/kg + low dose doxorubicin 2.5 mg/kg, CSC xenograft, day 14): no tumor mass
tumor size ([1]; intratumoral, 50 mg/kg + doxorubicin low dose 2.5 mg/kg vs low dose doxorubicin alone, CD24^−/CD44^+ CSC xenograft): significantly decreased
increase of percent inhibition of cell proliferation versus doxorubicin alone [2]: 1.8 folds
